Experimental findings from patent US5432194A, “(4-alkoxypyran-4-yl) substituted arylalkylaryl-, aryalkenylaryl-, and aryalkynylarylurea inhibitors of 5-lipoxygenase” (Abbott Laboratories, priority 1994, dated 1995) are described below.

Structures can show the parent of a compound that is named as a salt.

The assay concerns the target T1, 5-Lipoxygenase (Homo sapiens, UniProt P09917).
T1 construct: from tissue; host or cells: human heparinized whole blood
T1 sequence (P09917 1-674): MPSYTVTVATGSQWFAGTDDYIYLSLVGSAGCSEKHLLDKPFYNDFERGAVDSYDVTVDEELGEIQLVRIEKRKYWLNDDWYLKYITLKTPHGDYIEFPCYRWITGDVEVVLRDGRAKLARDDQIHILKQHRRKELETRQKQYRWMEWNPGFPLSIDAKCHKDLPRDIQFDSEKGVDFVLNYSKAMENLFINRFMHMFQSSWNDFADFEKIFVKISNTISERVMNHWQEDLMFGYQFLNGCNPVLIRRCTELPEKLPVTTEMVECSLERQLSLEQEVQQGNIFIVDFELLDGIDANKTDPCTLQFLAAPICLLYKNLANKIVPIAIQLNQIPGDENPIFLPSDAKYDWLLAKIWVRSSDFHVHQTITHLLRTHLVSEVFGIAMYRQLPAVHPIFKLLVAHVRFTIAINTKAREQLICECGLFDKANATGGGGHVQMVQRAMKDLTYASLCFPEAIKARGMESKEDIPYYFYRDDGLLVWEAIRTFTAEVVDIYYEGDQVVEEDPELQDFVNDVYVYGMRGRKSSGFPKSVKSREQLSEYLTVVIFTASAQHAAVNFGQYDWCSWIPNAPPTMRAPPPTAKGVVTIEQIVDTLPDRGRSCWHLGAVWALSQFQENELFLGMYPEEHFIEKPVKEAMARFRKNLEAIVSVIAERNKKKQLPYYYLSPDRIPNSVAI
Nature of the assay: Inhibition of calcium ionophore-induced LTB4 biosynthesis in human whole blood (5-lipoxygenase). The format is cell-based. The note with it: for IC50: calcium ionophore A23187 8.3 μM, 15 min preincubation, 37° C., read-out: IC50 against 5-lipoxygenase from stimulated LTB4 formation in human whole blood; for inhibition at 0.1 µM: @ 0.10 μM. How it is done: Inhibition of leukotriene biosynthesis was evaluated in an assay, involving calcium ionophore-induced LTB4 biosynthesis expressed human whole blood. Human heparinized whole blood was preincubated with test compounds or vehicle for 15 min at 37° C. followed by calcium ionophore A23187 challenge (final concentration of 8.3 μM) and the reaction terminated after 30 min by adding two volumes of methanol containing prostaglandin B2 as an internal recovery standard. The methanol extract was analyzed for LTB4 using a commercially available radioimmunoassay.

[1] abbreviates: A23187, read-out: Inhibition of stimulated LTB4 formation in human whole blood.

As for `COC1(c2cc(F)cc(OCc3ccc(N(C)C(=O)N(C)C)cc3)c2)CCOCC1` [Example 1, 4-{3-[4-((N',N'-dimethylaminocarbonyl)-N-methylamino)benzyloxy]-5-fluorophenyl}-4-methoxytetrahydropyran], the IC50 came out at 17 nM.

Turning to `COC1(c2cccc(Sc3ccc(N(C)C(=O)N(C)C)cc3)c2)CCOCC1` [Example 8, 4-{3-[4-((N',N'-dimethylaminocarbonyl)-N-methylamino)phenylthio]phenyl}-4-methoxytetrahydropyran], the inhibition at 0.025 µM (@ 0.025 μM, A23187, read-out: Inhibition of stimulated LTB4 formation in human whole blood) turned out to be 45%. In the case of `COC1(c2cccc([S+]([O-])c3ccc(N(C)C(=O)N(C)C)cc3)c2)CCOCC1` (stereo not shown) [Example 9, 4-{3-[4-((N',N'-dimethylaminocarbonyl)-N-methylamino)phenylsulfinyl]phenyl}-4-methoxytetrahydropyran], the inhibition at 0.1 µM under setting [1] worked out at 25%. In the case of `COC1(c2cc(F)cc(OCc3ccc(CNC(=O)N(C)C)cc3)c2)CCOCC1` [Example 11, 4-{3-[4-((N',N'-dimethylaminocarbonyl)aminomethyl)benzyloxy]-5-fluorophenyl}-4-methoxytetrahydropyran], the IC50 came out at 1800 nM. `COC1(c2cc(F)cc(OCc3ccc(CN4CCNC4=O)cc3)c2)CCOCC1` [Example 17, 4-{3-[4-(imidazolidin-2-on-1-ylmethyl)benzyloxy]-5-fluorophenyl}-4-methoxytetrahydropyran]: the inhibition at 200 µM (@ 200 μM, A23187, read-out: Inhibition of stimulated LTB4 formation in human whole blood) stood at 13%. For `CNC(=O)N(C)c1ccc(Sc2cccc(C3(OC)CCOCC3)c2)cc1` [Example 28, 4-{3-[4-((N"-methylaminocarbonyl)-N-methylamino)phenylthio]phenyl}-4-methoxytetrahydropyran], the inhibition at 0.78 µM (@ 0.78 μM, A23187, read-out: Inhibition of stimulated LTB4 formation in human whole blood) was determined as 100%. On to `COC1(c2cccc(Sc3ccc(N(C)C(=O)N4CCOCC4)cc3)c2)CCOCC1` [Example 29, 4-{3-[4-((4-morpholinocarbonyl)-N-methylamino)phenylthio]phenyl}-4-methoxytetrahydropyran], for which, under setting [1], the inhibition at 0.1 µM amounted to 94%.

For `COC1(c2cccc(Sc3ccc(N(C)C(=O)N4CCN(C)CC4)cc3)c2)CCOCC1` [Example 31, 4-{3-[4-(((4-methylpiperazinyl)carbonyl)-N-methylamino)phenylthio]phenyl}-4-methoxytetrahydropyran], the IC50 was found to be 70 nM. For `COC1(c2cccc(Sc3ccc(N(C)C(=O)N4CCN(C)CC4)cc3)c2)CCOCC1` [Example 33, 4-{3-[4-(((4-methylpiperazinyl)carbonyl)-N-methylamino)phenylthio]phenyl}-4-methoxytetrahydropyran hydrochloride salt], the IC50 was 80 nM. On the same count and under the same terms, with `C=CCN(C)C(=O)N(C)c1ccc(Sc2cccc(C3(OC)CCOCC3)c2)cc1` [Example 35, 4-{3-[4-(((N'-allyl-N'-methylamino)carbonyl)-N-methylamino)phenyl-thio]phenyl}-4-methoxytetrahydropyran] the figure was 30 nM.

The IC50 is the midpoint of a concentration-inhibition curve. One may read the inhibition as the relative decrease from the control value, in per cent.
